Consider eleven compounds from patent publication US6028112A, “Spirocyclopropyl fluorenes as melatonergic agents” (Bristol-Myers Squibb Company, priority 1998, dated 2000).

Structures are written as SMILES.

The term IC50 denotes the midpoint of a concentration-inhibition curve.

The subject of one test is circadian rhythms in rats.
Test: not given
To be noted: exogenous administration, Cassone, et al., 1986; cited from earlier work.
As to `COc1ccc2[nH]cc(CCNC(C)=O)c2c1` [melatonin, N-acetyl-5-methoxytryptamine], the “synchronization of circadian rhythms” value is “found to synchronize circadian rhythms in rats”.

The target in a further test is T1, melatonin ML1A receptor (Homo sapiens, UniProt P48039).
T1 construct: expressed in transfected cells; membrane homogenates
T1 sequence (P48039 whole entry): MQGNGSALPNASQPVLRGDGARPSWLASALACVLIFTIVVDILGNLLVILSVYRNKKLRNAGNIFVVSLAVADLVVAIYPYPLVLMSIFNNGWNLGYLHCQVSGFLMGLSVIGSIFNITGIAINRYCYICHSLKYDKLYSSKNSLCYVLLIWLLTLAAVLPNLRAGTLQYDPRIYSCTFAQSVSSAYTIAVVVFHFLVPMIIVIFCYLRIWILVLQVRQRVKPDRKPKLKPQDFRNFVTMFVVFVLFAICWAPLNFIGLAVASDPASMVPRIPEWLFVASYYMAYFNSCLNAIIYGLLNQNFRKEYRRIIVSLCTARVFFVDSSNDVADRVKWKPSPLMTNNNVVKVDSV
Kind of test: Melatonergic receptor binding activity (2-[125I]-iodomelatonin, membrane homogenates of NIH-3T3 cells expressing the ML1A receptor). To be noted: 37° C., 1 hour, class symbols, read-out: Melatonin Binding Affinity (IC50 Range). The procedure: Melatonergic Receptor Binding Activity
(a) TME=50 mM Tris buffer containing 12.5 mM MgCl2, and 2 mM EDTA, pH 7.4 at 37° C. with concentrated HCl.
(b) Wash buffer: 20 mM Tris base containing 2 mM MgCl2. pH 7.4 at room temperature.
(c) 10^-4 M melatonin (10^-5 M final concentration).
(d) 2-[^125 I]-iodomelatonin, […] final concentration
2. Membrane Homogenates. The melatonin ML1A receptor cDNA was subcloned into pcDNA3 and introduced into NIH-3T3 cells using Lipofectamine. Transformed NIH-3T3 cells resistant to geneticin (G-418) were isolated, and single colonies expressing high levels of 2[^125 Iiodomelatonin binding were isolated. Cells are maintained in DMEM supplemented with 10% calf serum and G-418 (0.5 g/liter). Cells are grown to confluency in T-175 flasks, scraped using Hank's balanced salt solution, and frozen at -80° C. For preparing membrane homogenates,pellets are thawed on ice, and resuspended in TME buffer in the presence of 10 μg/ml aprotinin and leupeptin, and 100 μM phenylmethylsulfonylfluoride. The cells were then homogenized using a dounce homogenizer, and centrifuged. The resulting pellet was resuspended with dounce homogenizer in TME (supplemented with the above protease inhibitors) and frozen. On the day of assay, the small aliquot was thawed on ice and resuspended in ice cold TME (1:50-1:100 v/v) and held on ice until assayed.
3. Incubation: 37° C. for 1 hour. Reaction is terminated by filtration. Filters are washed 3 times.
4. References: Reppert, S. M., and Ebisawa, R. (1994). Neuron, 13, 1177-1185.
As to `CCC(=O)NCC1CC12c1cc(OC)ccc1-c1ccc(OC)cc12` (centres unmarked) [Example 3, N-[(2',7'-Dimethoxyspiro[cyclopropane-1,9'-[9H]fluoren]-2-yl)methyl]propanamide], the IC50 is under 10 nM.
For `COc1ccc2c(c1)C1(CC1CNC(=O)C1CCC1)c1cc(OC)ccc1-2` (centres unmarked) [Example 9, N-[(2',7'-Dimethoxyspiro[cyclopropane-1,9'-[9H]fluoren]-2-yl)methyl]-cyclobutane carboxamide], the IC50 fell in the range of 10 to 100 nM.
As for `CCC(=O)NCC1CC12c1cc(OC)ccc1-c1ccc(OC)cc12` (single isomer, unassigned; (+)) [Example 5, (+)-N-[(2',7'-Dimethoxyspiro[cyclopropane-1,9'-[9H]fluoren]-2-yl)methyl]propanamide], the IC50 is under 10 nM.
For `CCC(=O)NCC1CC12c1cc(OC)ccc1-c1ccc(OC)cc12` (single isomer, unassigned; (-)) [Example 4, (-)-N-[(2'7'-Dimethoxyspiro[cyclopropane-1,9'-[9H]fluoren]-2-yl)methyl]propanamide], the IC50 is under 10 nM.
For the compound `CCCC(=O)NCC1CC12c1cc(OC)ccc1-c1ccc(OC)cc12` (centres unmarked) [Example 7, N-[(2',7'-Dimethoxyspiro[cyclopropane-1,9'-[9H]fluoren]-2-yl)methyl]butanamide], the half-maximal inhibitory concentration (IC50) was under 10 nM.
Consider `COc1ccc2c(c1)C1(CC1CNC(=O)C1CC1)c1cc(OC)ccc1-2` (centres unmarked) [Example 8, N-[(2',7'-Dimethoxyspiro[cyclopropane-1,9'-[9H]fluoren]-2-yl)methyl]cyclopropane carboxamide], for which the IC50 was under 10 nM.
The same measure, in the same setting: with `CCC(=O)NCC1CC12c1cc(F)ccc1-c1ccc(OC)cc12` (stereo not drawn) [Example 12, cis-N-[(2'-Fluoro-7'-methoxy-spiro[cyclopropane-1,9'-[9H]fluoren]-2-yl)methyl]propanamide] the figure was under 10 nM.
Turning to `COc1ccc2c(c1)C1(CC1CNC(=O)C(C)(C)C)c1cc(OC)ccc1-2` (centres unmarked) [Example 10, N-[(2',7'-Dimethoxyspiro[cyclopropane-1,9'-[9H]fluoren]-2-yl)methyl]-2,2-dimethylpropanamide], the IC50 fell in the range of 100 to 250 nM.
Still for that read-out and setting: under `CCC(=O)NCC1CC12c1cc(F)ccc1-c1ccc(OC)cc12` (stereo not drawn) [Example 13, trans-N-[(2'-Fluoro-7'-methoxy-spiro[cyclopropane-1,9'-[9H]fluoren]-2-yl)methyl]propanamide] stands under 10 nM; under `COc1ccc2c(c1)C1(CC1CNC(C)=O)c1cc(OC)ccc1-2` (centres unmarked) [Example 6, N-[(2',7'-Dimethoxyspiro[cyclopropane-1,9'-[9H]fluoren]-2-yl)methyl]acetamide], under 10 nM.
